In ChEMBL document CHEMBL1157972, “Biotransformation of (-)-ambrox by cell suspension cultures of Actinidia deliciosa” (J Nat Prod, 2006):
Activity calls are given as the source filed them. The rule behind the calls is not given here.

Molecular target: Thymidine phosphorylase (Escherichia coli K-12) (UniProt P07650)
Assay: (§1) Inhibition of Escherichia coli thymidine phosphorylase by spectrophotometry

Chain of Thymidine phosphorylase (Escherichia coli K-12) (P07650 whole entry, looked up): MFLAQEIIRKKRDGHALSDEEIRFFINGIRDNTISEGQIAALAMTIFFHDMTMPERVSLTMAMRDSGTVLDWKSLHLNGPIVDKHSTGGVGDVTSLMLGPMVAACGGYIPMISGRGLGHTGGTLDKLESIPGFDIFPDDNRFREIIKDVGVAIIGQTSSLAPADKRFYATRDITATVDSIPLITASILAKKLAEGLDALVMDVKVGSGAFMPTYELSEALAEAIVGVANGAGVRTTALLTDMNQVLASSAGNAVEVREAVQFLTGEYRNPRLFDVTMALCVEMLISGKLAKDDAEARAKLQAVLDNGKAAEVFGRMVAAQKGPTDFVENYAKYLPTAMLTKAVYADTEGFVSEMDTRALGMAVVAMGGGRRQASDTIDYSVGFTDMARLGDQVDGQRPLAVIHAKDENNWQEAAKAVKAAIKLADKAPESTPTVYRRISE

| SMILES | Activity |
| --- | --- |
| CC1(C)C(=O)CC[C@]2(C)[C@H]3CCO[C@]3(C)CC[C@@H]12 | inactive |
| CC1(C)CCC[C@]2(C)[C@H]3CCO[C@]3(C)CC[C@@H]12 | inactive |
| CC1(C)CC[C@H](O)[C@]2(C)[C@H]3CCO[C@]3(C)CC[C@@H]12 | inactive |
| CC1(C)[C@@H](O)C[C@H](O)[C@]2(C)[C@H]3CCO[C@]3(C)CC[C@@H]12 | inactive |
| CC1(C)[C@@H](O)CC[C@]2(C)[C@H]3CCO[C@]3(C)CC[C@@H]12 | inactive |

Molecular target: Thymidine phosphorylase (Escherichia coli K-12, UniProt P07650)
Assay: as §1

Chain of Thymidine phosphorylase (P07650 whole entry): as the sequence (P07650 whole entry, looked up) above

| SMILES | IC50 [µM] |
| --- | --- |
| CC1(C)[C@@H](O)CC[C@]2(C)[C@H]3CCO[C@]3(C)C[C@@H](O)[C@@H]12 | 81.4 |
| CC1(C)CC[C@H](O)[C@]2(C)[C@H]3CCO[C@]3(C)C[C@@H](O)[C@@H]12 | 72 |
